Test results as given in patent publication US4968708A, “Imidazo[2,1-B]benzothiazole compounds and antiulcer compositions containing the same” (priority 1988, dated 1990).

What was measured:
ethanol-induced ulcer = test: Antiulcer activity against ethanol-induced ulcer model; type: in vivo, Wistar strain male rats; conditions: rats, 100 mg/kg p.o. 30 min before absolute ethanol 5 ml/kg p.o.; for Ethanol Induced Ulcer Ulcer Index: stomach excised 1 h later; for Ethanol Induced Ulcer Inhibition Rate: vs control group
Procedure: A suspension of each test compound in a 5% gum arabic aqueous solution was orally given to Wistar strain male rats (at the age of 7 to 8 weeks, weighing 180 to 250 g; 5 rats in the group administered with the test compound; 9 rats in the control group) fasted for […] at a dose of 100 mg of any the test compound/5 ml/kg. Thirty minutes after administration, absolute ethanol was further orally administered at a dose of 5 ml/kg. One hour after administration of absolute ethanol, the stomach was excised under ethereal anesthesia and spotted and linear erosion and a long diameter of ulcer were microscopically measured to determine an ulcer index and an inhibition rate.
(§1) In the control group, a 5% gum arabic aqueous solution was orally administered at a dose of 5 ml/kg.

aspirin-induced ulcer = test: Antiulcer activity against aspirin-induced ulcer model; type: in vivo, Wistar strain male rats; conditions: rats, 100 mg/kg p.o. 30 min before aspirin 200 mg/kg p.o.; for inhibition in vivo at 100 mg/kg: Rattus norvegicus, po, 7 h, read-out: Aspirin Induced Ulcer Inhibition Rate; for Aspirin Induced Ulcer Ulcer Index: stomach excised 7 h after aspirin
Procedure: Thirty minutes after administration, aspirin was further orally administered at a dose of 200 mg/kg. Seven hours after administration of aspirin, the stomach was excised under ethereal anesthesia and spotted and linear erosion and a long diameter of any ulcer were microscopically measured to determine an ulcer index and an inhibition rate.
as §1

gastric juice secretion = test: Gastric juice secretion inhibition activity (pyloric ligature); type: in vivo, Wistar strain male rats; conditions: rats, 100 mg/kg p.o.; for inhibition in vivo at 100 mg/kg: Rattus norvegicus, po, read-out: Volume Inhibition Rate; for Volume (gastric juice): pyloric ligature 30 min later, gastric juice collected after 4 h; for pH (gastric juice): first part of Table 5
Procedure: A suspension of each test compound in a 5% gum arabic aqueous solution was orally given to Wistar strain male rats (at the age of 7 to 8 weeks, weighing 180 to 250 g; 7-9 rats in the group administered with the test compound; 14-17 rats in the control group) fasted for 24 hours at a dose of 100 mg of the test compound/5 ml/kg. Thirty minutes after administration, pyloric ligature was made under ethereal anesthesia. Four hours thereafter, the stomach was excised under ethereal anesthesia to collect gastric juice. The collected gastric juice was centrifuged (2500 rpm) at 4° C. for 10 minutes. After the supernatant was collected, the amount of the gastric juice and its pH were measured using a pH meter. Furthermore, the amount of free hydrochloric acid and the total acidity were measured with Topfer reagent and phenolphthalein reagent, respectively. Using a part of the gastric juice, pepsin output in the gastric juice was measured using casein as a substrate in a manner similar to the method of Anson et al.
as §1

[1] = tested on: water-immersion stress ulcer; test: Antiulcer activity against water-immersion stress ulcer; type: in vivo, Wistar strain male rats; conditions: rats; for inhibition in vivo at 100 mg/kg: Rattus norvegicus, po, 6 h, read-out: Water-Immersion Stress Ulcer Inhibition Rate; for Water-Immersion Stress Ulcer Ulcer Index: 100 mg/kg p.o. 30 min before 6 h water immersion at 22°±1° C.
Procedure: A suspension of each test compound in a 5% gum arabic aqueous solution was orally given to Wistar strain male rats (at the age of 7 to 8 weeks, weighing 180 to 250 g; 7-9 rats in the group administered with the test compound; 10-16 rats in the control group) fasted for 24 hours at a dose of 100 mg of the test compound/5 ml/kg. Thirty minutes after administration, the animal was immersed in a water bath at 22°±1° C. up to the xiphisternum using a stress cage made by Tokyo University, Faculty of Pharmacology, to apply a stress load for 6 hours. After applying the stress load, the rats had the cervical vertebra dislocated to death. Then, the stomach was excised and, spotted and linear erosion and a long diameter of any ulcer were microscopically measured to determine an ulcer index and an inhibition rate.
as §1

Acute toxicity = type: in vivo; conditions: mouse, in vivo, po; mice, 7 days observation, Probit method
Procedure: (§2) A suspension of each test compound in a 5% gum arabic aqueous solution was orally given to ddy strain male mice (at the age of 4 to 5 weeks, weighing 25 to 35 g; 2 to 9 mice in one group). For 7 days after the administration, the mice were observed as to if they were dead or alive. Based on the number of deaths, the LD50 value was determined by the Probit method.

ddy strain male mice = test: Acute toxicity; type: in vivo; conditions: 7 days observation
Procedure: as §2

[2] = 4 h, pyloric ligature, 4 h, vs control group
[3] = 100 mg/kg p.o. 30 min before 6 h water immersion, vs control group

**Q.** Which “Ethanol Induced Ulcer Ulcer Index” value (ethanol-induced ulcer) does the source give for `Cc1nc2sc3ccccc3n2c1CO` [Example 1, 2-Methylimidazo[2,1-b]benzothiazole-3-methanol] here?
**A.** 4.9 ± 2.6 mm^2

**Q.** What about the “Ethanol Induced Ulcer Inhibition Rate” value (ethanol-induced ulcer) of the same compound?
**A.** 94.3%

**Q.** What about the inhibition in vivo at 100 mg/kg (aspirin-induced ulcer; vs control group) of the same compound?
**A.** 59.4%

**Q.** What about the “Aspirin Induced Ulcer Ulcer Index” value (aspirin-induced ulcer) of the same compound?
**A.** 23.3 ± 5.1 mm^2

**Q.** What about the inhibition in vivo at 100 mg/kg (gastric juice secretion; [2]) of the same compound?
**A.** 52.5%

**Q.** What about the “Volume (gastric juice)” value (gastric juice secretion) of the same compound?
**A.** 2.8 ± 0.4 mL

**Q.** And the Acidity (gastric juice secretion; pyloric ligature, 4 h)?
**A.** 49.0 ± 5.9 mEq/l

**Q.** What about the “Free HCl” value (gastric juice secretion; pyloric ligature, 4 h) of the same compound?
**A.** 9.4 ± 3.1 mEq/l

**Q.** What about the “Pepsin Activity” value (gastric juice secretion; pyloric ligature, 4 h) of the same compound?
**A.** 90.3 ± 5.9 units/ml

**Q.** What about the “Pepsin Output” value (gastric juice secretion; pyloric ligature, 4 h) of the same compound?
**A.** 59.6 ± 6.8 units/hr

**Q.** And the “pH (gastric juice)” value (gastric juice secretion; pyloric ligature, 4 h)?
**A.** 2.94 ± 0.30

**Q.** And the inhibition in vivo at 100 mg/kg [1, 3]?
**A.** 80%

**Q.** And the “Water-Immersion Stress Ulcer Ulcer Index” value [1]?
**A.** 4.3 ± 0.9 mm^2

**Q.** And the LD50 at 168 h (Acute toxicity)?
**A.** 3590 mg/kg

**Q.** What about the “Mortality (No. death/No. treated)” value (ddy strain male mice; 2000 mg/kg p.o) of the same compound?
**A.** 0/4

**Q.** And the “Mortality (No. death/No. treated)” value (ddy strain male mice; 2828 mg/kg p.o)?
**A.** 1/5

**Q.** What about the “Mortality (No. death/No. treated)” value (ddy strain male mice; 4000 mg/kg p.o) of the same compound?
**A.** 3/5

**Q.** What about the “Mortality (No. death/No. treated)” value (ddy strain male mice; 4899 mg/kg p.o) of the same compound?
**A.** 2/2

**Q.** Which “Aspirin Induced Ulcer Ulcer Index” value (aspirin-induced ulcer) does the source give for `Cc1nc2sc3ccccc3n2c1CO.Cl` [Example 2, 2-Methylimidazo[2,1-b]benzothiazole-3-methanol hydrochloride] here?
**A.** 36.0 ± 5.8 mm^2

**Q.** What about the “Aspirin Induced Ulcer Inhibition Rate” value (aspirin-induced ulcer; vs control group) of the same compound?
**A.** 46.1%

**Q.** And the “Volume (gastric juice)” value (gastric juice secretion)?
**A.** 2.8 ± 0.4 mL

**Q.** And the Acidity (gastric juice secretion; pyloric ligature, 4 h)?
**A.** 77.3 ± 4.5 mEq/l

**Q.** And the “Free HCl” value (gastric juice secretion; pyloric ligature, 4 h)?
**A.** 15.8 ± 4.5 mEq/l

**Q.** What about the “Pepsin Activity” value (gastric juice secretion; pyloric ligature, 4 h) of the same compound?
**A.** 91.1 ± 8.3 units/ml

**Q.** What about the “Pepsin Output” value (gastric juice secretion; pyloric ligature, 4 h) of the same compound?
**A.** 58.4 ± 5.2 units/hr

**Q.** And the “pH (gastric juice)” value (gastric juice secretion; pyloric ligature, 4 h)?
**A.** 2.43 ± 0.20

**Q.** What about the “Volume Inhibition Rate” value (gastric juice secretion; pyloric ligature, 4 h, vs control group) of the same compound?
**A.** 53.3%

**Q.** What about the “Water-Immersion Stress Ulcer Ulcer Index” value [1] of the same compound?
**A.** 4.6 ± 1.1 mm^2

**Q.** And the “Water-Immersion Stress Ulcer Inhibition Rate” value [1, 3]?
**A.** 80.3%

**Q.** And the LD50 at 168 h (Acute toxicity)?
**A.** 2130 mg/kg

**Q.** What about the “Mortality (No. death/No. treated)” value (ddy strain male mice; 1732 mg/kg p.o) of the same compound?
**A.** 0/5

**Q.** What about the “Mortality (No. death/No. treated)” value (ddy strain male mice; 2041 mg/kg p.o) of the same compound?
**A.** 2/4

**Q.** What about the “Mortality (No. death/No. treated)” value (ddy strain male mice; 2236 mg/kg p.o) of the same compound?
**A.** 3/5

**Q.** And the “Mortality (No. death/No. treated)” value (ddy strain male mice; 2449 mg/kg p.o)?
**A.** 4/5

**Q.** For `CCc1nc2sc3ccccc3n2c1CO` [Example 8, 2-Ethylimidazo[2,1-b]benzothiazole-3-methanol], which “Ethanol Induced Ulcer Ulcer Index” value (ethanol-induced ulcer) is on record?
**A.** 4.1 ± 2.2 mm^2

**Q.** What about the “Ethanol Induced Ulcer Inhibition Rate” value (ethanol-induced ulcer) of the same compound?
**A.** 95.2%

**Q.** What about the inhibition in vivo at 100 mg/kg [1, 3] of the same compound?
**A.** 50.3%

**Q.** And the “Water-Immersion Stress Ulcer Ulcer Index” value [1]?
**A.** 8.1 ± 2.2 mm^2

**Q.** What does the source list for `COCc1c(C)nc2sc3ccccc3n12` [Example 12, 2-Methylimidazo[2,1-b]benzothiazole-3-methanol methyl ether]?
**A.** inhibition in vivo at 100 mg/kg (aspirin-induced ulcer; vs control group): 34.5%; Aspirin Induced Ulcer Ulcer Index (aspirin-induced ulcer): 49.9 ± 5.4 mm^2; inhibition in vivo at 100 mg/kg (gastric juice secretion; [2]): 60.3%; Volume (gastric juice) (gastric juice secretion): 2.5 ± 0.1 mL; Acidity (gastric juice secretion; pyloric ligature, 4 h): 66.7 ± 4.7 mEq/l; Free HCl (gastric juice secretion; pyloric ligature, 4 h): 23.2 ± 6.9 mEq/l; Pepsin Activity (gastric juice secretion; pyloric ligature, 4 h): 90.7 ± 4.1 units/ml; Pepsin Output (gastric juice secretion; pyloric ligature, 4 h): 55.5 units/hr; pH (gastric juice) (gastric juice secretion; pyloric ligature, 4 h): 2.28 ± 0.26; inhibition in vivo at 100 mg/kg [1, 3]: 83.3%; Water-Immersion Stress Ulcer Ulcer Index [1]: 2.2 ± 0.4 mm^2; LD50 at 168 h (Acute toxicity): 1770 mg/kg; Mortality (No. death/No. treated) (ddy strain male mice; 1414 mg/kg p.o): 1/5; Mortality (No. death/No. treated) (ddy strain male mice; 2000 mg/kg p.o): 6/9; Mortality (No. death/No. treated) (ddy strain male mice; 2828 mg/kg p.o): 6/6
